Results on 1 compound are retold here after publication PMC6254361, “The properties of Msh2–Msh6 ATP binding mutants suggest a signal amplification mechanism in DNA mismatch repair” (The Journal of Biological Chemistry, 2018).

In the assay the target is T1, Msh2–Msh6 (Saccharomyces cerevisiae, UniProt P25847+Q03834, Q03834:K988R).
T1 sequence (P25847 1-964): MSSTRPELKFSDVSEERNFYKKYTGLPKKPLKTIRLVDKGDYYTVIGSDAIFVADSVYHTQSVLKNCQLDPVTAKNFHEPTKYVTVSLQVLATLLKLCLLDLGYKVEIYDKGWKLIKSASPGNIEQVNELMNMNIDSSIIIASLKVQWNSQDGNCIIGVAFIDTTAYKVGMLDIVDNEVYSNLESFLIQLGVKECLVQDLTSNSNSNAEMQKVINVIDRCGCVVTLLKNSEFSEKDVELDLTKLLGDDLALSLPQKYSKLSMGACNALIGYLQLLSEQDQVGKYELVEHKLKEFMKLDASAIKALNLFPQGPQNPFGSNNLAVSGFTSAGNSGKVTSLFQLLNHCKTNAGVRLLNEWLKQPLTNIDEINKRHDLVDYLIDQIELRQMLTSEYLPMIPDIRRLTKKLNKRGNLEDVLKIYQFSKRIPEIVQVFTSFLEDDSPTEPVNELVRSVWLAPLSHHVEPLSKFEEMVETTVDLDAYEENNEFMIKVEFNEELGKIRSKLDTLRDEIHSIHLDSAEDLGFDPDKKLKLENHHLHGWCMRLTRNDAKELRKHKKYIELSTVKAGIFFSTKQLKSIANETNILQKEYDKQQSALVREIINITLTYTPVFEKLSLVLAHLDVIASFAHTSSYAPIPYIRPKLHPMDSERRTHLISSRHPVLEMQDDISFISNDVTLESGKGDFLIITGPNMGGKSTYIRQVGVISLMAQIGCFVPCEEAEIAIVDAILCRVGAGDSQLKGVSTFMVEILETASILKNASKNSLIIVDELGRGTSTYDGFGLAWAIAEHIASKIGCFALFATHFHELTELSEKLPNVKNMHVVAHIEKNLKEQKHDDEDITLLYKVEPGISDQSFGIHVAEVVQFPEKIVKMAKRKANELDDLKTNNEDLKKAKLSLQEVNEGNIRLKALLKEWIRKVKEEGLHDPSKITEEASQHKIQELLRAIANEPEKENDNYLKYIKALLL
T1 sequence (Q03834 1-1242 K988R): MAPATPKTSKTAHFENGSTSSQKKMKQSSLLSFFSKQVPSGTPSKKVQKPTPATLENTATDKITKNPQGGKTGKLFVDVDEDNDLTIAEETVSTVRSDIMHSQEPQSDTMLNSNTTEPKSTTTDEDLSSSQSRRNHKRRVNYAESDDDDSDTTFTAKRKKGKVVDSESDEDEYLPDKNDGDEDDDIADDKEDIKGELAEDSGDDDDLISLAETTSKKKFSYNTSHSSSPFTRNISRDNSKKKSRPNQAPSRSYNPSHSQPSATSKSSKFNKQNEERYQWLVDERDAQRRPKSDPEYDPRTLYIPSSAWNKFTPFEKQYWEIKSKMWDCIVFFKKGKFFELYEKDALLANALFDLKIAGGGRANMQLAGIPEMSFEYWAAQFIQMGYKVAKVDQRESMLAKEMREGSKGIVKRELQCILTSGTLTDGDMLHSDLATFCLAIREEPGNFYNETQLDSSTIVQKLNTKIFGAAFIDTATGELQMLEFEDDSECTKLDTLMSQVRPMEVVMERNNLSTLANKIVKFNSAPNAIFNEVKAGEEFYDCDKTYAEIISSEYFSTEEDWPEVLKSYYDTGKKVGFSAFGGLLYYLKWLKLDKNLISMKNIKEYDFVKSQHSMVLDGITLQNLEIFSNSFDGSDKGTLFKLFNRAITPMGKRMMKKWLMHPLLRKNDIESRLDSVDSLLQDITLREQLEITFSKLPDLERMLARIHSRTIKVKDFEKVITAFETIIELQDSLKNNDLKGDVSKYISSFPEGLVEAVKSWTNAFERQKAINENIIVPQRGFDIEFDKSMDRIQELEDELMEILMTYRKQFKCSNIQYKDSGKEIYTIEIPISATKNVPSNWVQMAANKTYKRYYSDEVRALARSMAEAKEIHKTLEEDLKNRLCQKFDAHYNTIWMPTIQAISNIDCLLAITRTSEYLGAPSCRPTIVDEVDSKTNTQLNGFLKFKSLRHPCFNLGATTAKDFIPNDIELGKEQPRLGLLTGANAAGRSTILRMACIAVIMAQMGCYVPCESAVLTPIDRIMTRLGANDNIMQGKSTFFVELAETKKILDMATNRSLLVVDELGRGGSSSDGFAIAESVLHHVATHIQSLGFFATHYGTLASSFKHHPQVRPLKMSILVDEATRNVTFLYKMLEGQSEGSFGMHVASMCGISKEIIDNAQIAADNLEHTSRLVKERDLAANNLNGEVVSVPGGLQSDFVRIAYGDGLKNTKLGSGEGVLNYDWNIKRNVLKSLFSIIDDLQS
Kind of assay: UV cross-linking of [γ-32P]ATP, SDS-PAGE, phosphorimaging. In kind it is binding. As to conditions: labelled compound; no Mg2+, EDTA, pH 8, on ice; Msh2 site at 60 μM ATP, Msh6 site at 1 μM ATP.

With `Nc1ncnc2c1ncn2[C@@H]1O[C@H](COP(=O)(O)OP(=O)(O)OP(=O)(O)O)[C@@H](O)[C@H]1O` [ATP], the “relative ATP binding” value was “Msh2–Msh6(K988A) and Msh2–Msh6(K988R) mutant complexes had partial ATP binding defects at the Msh2 subunit”.
